Measured values published in ChEMBL document CHEMBL1152527, “Tessaric acid derivatives induce G2/M cell cycle arrest in human solid tumor cell lines” (2009).
Activity calls are given as the source filed them. The rule behind the calls is not given here.

Key:
Type in all cases: functional
T47D [1] = assay: Growth inhibition of human T47D cells after 48 hrs by sulforhodamine B assay
HBL-100 = assay: Growth inhibition of human HBL100 cells after 48 hrs by sulforhodamine B assay; conditions: HBL-100, 48 h
SW1573 [2] = assay: Growth inhibition of human SW1573 cells after 48 hrs by sulforhodamine B assay; conditions: SW1573, 48 h
A2780 = assay: Growth inhibition of human A2780 cells after 48 hrs by sulforhodamine B assay; conditions: A2780, 48 h
WiDr [3] = assay: Growth inhibition of human WiDr cells after 48 hrs by sulforhodamine B assay
HeLa [4] = assay: Growth inhibition of human HeLa cells after 48 hrs by sulforhodamine B assay
T47D [5] = assay: Cell cycle arrest in human T47D cells assessed as minor accumulation at S phase at 5 to 20 uM after 24 hrs by propidium iodide staining-based FACS analysis
T47D [6] = assay: Cell cycle arrest in human T47D cells assessed as minor accumulation at G2/M phase at 5 to 20 uM after 24 hrs by propidium iodide staining-based FACS analysis
HeLa [7] = assay: Cell cycle arrest in human HeLa cells assessed as minor accumulation at G2/M phase at 5 to 20 uM after 24 hrs by propidium iodide staining-based FACS analysis
SW1573 [8] = assay: Cell cycle arrest in human SW1573 cells assessed as minor accumulation at S phase at 5 to 20 uM after 24 hrs by propidium iodide staining-based FACS analysis
HeLa [9] = assay: Cell cycle arrest in human HeLa cells assessed as minor accumulation at S phase at 5 to 20 uM after 24 hrs by propidium iodide staining-based FACS analysis
WiDr [10] = assay: Cell cycle arrest in human WiDr cells assessed as minor accumulation at S phase at 5 to 20 uM after 24 hrs by propidium iodide staining-based FACS analysis
WiDr [11] = assay: Cell cycle arrest in human WiDr cells assessed as minor accumulation at G2/M phase at 5 to 20 uM after 24 hrs by propidium iodide staining-based FACS analysis
SW1573 [12] = assay: Cell cycle arrest in human SW1573 cells assessed as minor accumulation at G2/M phase at 5 to 20 uM after 24 hrs by propidium iodide staining-based FACS analysis
T47D [13] = assay: Cell cycle arrest in human T47D cells assessed as decrease in accumulation at S phase at 6 uM after 24 hrs by propidium iodide staining-based FACS analysis
HeLa [14] = assay: Cell cycle arrest in human HeLa cells assessed as accumulation at G2/M phase at 3 uM after 24 hrs by propidium iodide staining-based FACS analysis
SW1573 [15] = assay: Cell cycle arrest in human SW1573 cells assessed as decrease in accumulation at G0/G1 phase at 6 uM after 24 hrs by propidium iodide staining-based FACS analysis
SW1573 [16] = assay: Cell cycle arrest in human SW1573 cells assessed as decrease in accumulation at S phase at 3 uM after 24 hrs by propidium iodide staining-based FACS analysis
HeLa [17] = assay: Cell cycle arrest in human HeLa cells assessed as decrease in accumulation at G0/G1 phase at 6 uM after 24 hrs by propidium iodide staining-based FACS analysis
WiDr [18] = assay: Cell cycle arrest in human WiDr cells assessed as decrease in accumulation at S phase at 6 uM after 24 hrs by propidium iodide staining-based FACS analysis
HeLa [19] = assay: Cell cycle arrest in human HeLa cells assessed as decrease in accumulation at S phase at 3 uM after 24 hrs by propidium iodide staining-based FACS analysis
T47D [20] = assay: Cell cycle arrest in human T47D cells assessed as increase in accumulation at sub G0 phase at 3 to 6 uM treated for 24 hrs measured after 24 hrs of drug washout by propidium iodide staining-based FACS analysis
WiDr [21] = assay: Cell cycle arrest in human WiDr cells assessed as increase in accumulation at sub G0 phase at 3 to 6 uM treated for 24 hrs measured after 24 hrs of drug washout by propidium iodide staining-based FACS analysis
HeLa [22] = assay: Cell cycle arrest in human HeLa cells assessed as accumulation at G2/M phase at 6 uM after 24 hrs by propidium iodide staining-based FACS analysis
WiDr [23] = assay: Cell cycle arrest in human WiDr cells assessed as accumulation at G2/M phase at 6 uM after 24 hrs by propidium iodide staining-based FACS analysis
SW1573 [24] = assay: Cell cycle arrest in human SW1573 cells assessed as accumulation at G2/M phase at 6 uM after 24 hrs by propidium iodide staining-based FACS analysis
SW1573 [25] = assay: Cell cycle arrest in human SW1573 cells assessed as accumulation at S phase at 6 uM after 24 hrs by propidium iodide staining-based FACS analysis
SW1573 [26] = assay: Cell cycle arrest in human SW1573 cells assessed as accumulation at G2/M phase at 3 uM after 24 hrs by propidium iodide staining-based FACS analysis
T47D [27] = assay: Cell cycle arrest in human T47D cells assessed as accumulation at G2/M phase at 6 uM after 24 hrs by propidium iodide staining-based FACS analysis
HeLa [28] = assay: Cell cycle arrest in human HeLa cells assessed as accumulation at S phase at 6 uM after 24 hrs by propidium iodide staining-based FACS analysis

| SMILES | pGI50 (T47D [1]) | GI50 (T47D [1]; read-out: GI50) | pGI50 (HBL-100) | GI50 (HBL-100; read-out: GI50) | pGI50 (SW1573 [2]) | GI50 (SW1573 [2]; read-out: GI50) | pGI50 (A2780) | GI50 (A2780; read-out: GI50) | pGI50 (WiDr [3]) | GI50 (WiDr [3]; read-out: GI50) | pGI50 (HeLa [4]) | GI50 (HeLa [4]; read-out: GI50) | GI50 (T47D [1]; read-out: pGI50 (converted)) | further results |
| --- | --- | --- | --- | --- | --- | --- | --- | --- | --- | --- | --- | --- | --- | --- |
| C=C(C(=O)O)[C@@H]1CC[C@@]2(C)CCC[C@@](C)(O)[C@@H]2C1 [ILICIC ACID] | 4 | > 100 µM | 4 | > 100 µM | 4 | > 100 µM | 4 | > 100 µM | 4 | > 100 µM | 4 | > 100 µM |  |  |
| C=C(CO)[C@@H]1CC[C@@]2(C)CCC[C@@](C)(O)[C@@H]2C1 [ILICIC ALCOHOL] | 4 | > 100 µM | 4 | > 100 µM | 4 | > 100 µM | 4 | > 100 µM | 4 | > 100 µM | 4 | > 100 µM |  |  |
| C=C(C=O)[C@@H]1CC[C@@]2(C)CCC[C@@](C)(O)[C@@H]2C1 [ILICIC ALDEHYDE] |  | 6.5 µM |  | 2.8 µM | 5.72 | 2 µM |  | 1.8 µM |  | 12 µM |  | 16 µM | 5.19 µM | Activity (T47D [5]): Active; Activity (T47D [6]): Active; GI50 (HBL-100; read-out: pGI50 (converted)): 5.56 µM; Activity (HeLa [7]): Active; Activity (SW1573 [8]): Active; Activity (HeLa [9]): Active; Activity (WiDr [10]): Active; GI50 (A2780; read-out: pGI50 (converted)): 5.58 µM; Activity (WiDr [11]): Active; Activity (SW1573 [12]): Active; GI50 (WiDr [3]; read-out: pGI50 (converted)): 4.92 µM; GI50 (HeLa [4]; read-out: pGI50 (converted)): 4.8 µM |
| C=C(C(=O)OC)[C@@H]1CCC2=CC(=O)C[C@H](C)[C@@]2(C)C1 [TESSARIC ACID METHYL ESTER] |  | 2.4 µM | 5.63 | 2.4 µM |  | 3.8 µM | 5.75 | 1.9 µM | 5.74 | 2 µM | 5.35 | 4.5 µM | 5.62 µM | Activity (T47D [13]): Active; Activity (HeLa [14]): Active; Activity (SW1573 [15]): Active; Activity (SW1573 [16]): Active; Activity (HeLa [17]): Active; Activity (WiDr [18]): Active; Activity (HeLa [19]): Active; GI50 (SW1573 [2]; read-out: pGI50 (converted)): 5.44 µM; Activity (T47D [20]): Active; Activity (WiDr [21]): Active; Activity (HeLa [22]): Active; Activity (WiDr [23]): Active; Activity (SW1573 [24]): Active; Activity (SW1573 [25]): Active; Activity (SW1573 [26]): Active; Activity (T47D [27]): Active; Activity (HeLa [28]): Active |
| C=C(C(=O)O)[C@@H]1CCC2=CC(=O)C[C@H](C)[C@@]2(C)C1 [TESSARIC ACID] | 4 | > 100 µM | 4 | > 100 µM | 4 | > 100 µM | 4 | > 100 µM | 4 | > 100 µM | 4 | > 100 µM |  |  |
| C=C(C(=O)OC)[C@@H]1CC[C@@]2(C)CCC[C@@](C)(O)[C@@H]2C1 [VACHANIC ACID METHYLESTER] | 4 | > 100 µM | 4.13 | 74 µM | 4 | > 100 µM | 4 | > 100 µM | 4 | > 100 µM | 4 | > 100 µM |  |  |
